In ChEMBL document CHEMBL1201862, “PubChem BioAssay data set” (2004):
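48-hour exposure; five concentrations; linearly interpolated endpoints. GI50: concentration for 50% inhibition of growth.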 Active and inactive are the calls of the source. Cut-off read from the data, not from the text of the source: active = GI50 up to about 1.1 µM and inactive = higher.

Experiments:
Experiment in all cases: inhibition of tumour cell growth, NCI panel, 48 h
ACHN = system: ACHN
DU-145 = system: DU-145
EKVX = system: EKVX
HCC 2998 = system: HCC 2998
Hs-578T = system: Hs-578T
IGROV-1 = system: IGROV-1
MDA-MB-435 = system: MDA-MB-435
MDA-N = system: MDA-N
MOLT-4 = system: MOLT-4
Malme-3M = system: Malme-3M
NCI/ADR-RES = system: NCI/ADR-RES
OVCAR-3 = system: OVCAR-3
RXF 393 = system: RXF 393
SK-MEL-2 = system: SK-MEL-2
SK-OV-3 = system: SK-OV-3
UO-31 = system: UO-31

Compound	GI50 (ACHN)	GI50 (DU-145)	GI50 (EKVX)	GI50 (HCC 2998)	GI50 (Hs-578T)	GI50 (IGROV-1)	GI50 (MDA-MB-435)	GI50 (MDA-N)	GI50 (MOLT-4)	GI50 (Malme-3M)	GI50 (NCI/ADR-RES)	GI50 (OVCAR-3)	GI50 (RXF 393)	GI50 (SK-MEL-2)	GI50 (SK-OV-3)	GI50 (UO-31)
CC(C)(C)OC(=O)NC(Cc1ccc(OCc2ccccc2)cc1)C(=O)NC(COCc1ccccc1)C(=O)Oc1c(Cl)c(Cl)c(Cl)c(Cl)c1Cl (centres undefined)	24.4 µM (inactive)	14.8 µM (inactive)	23.1 µM (inactive)	20.1 µM (inactive)	17.7 µM (inactive)	15.8 µM (inactive)	21.7 µM (inactive)	26.4 µM (inactive)	37.5 µM (inactive)	25.1 µM (inactive)	21.2 µM (inactive)	14.9 µM (inactive)	24.8 µM (inactive)	19 µM (inactive)	17.1 µM (inactive)	17 µM (inactive)
CC(C(=O)NCCNC(=O)CCC(=O)N(C)O)C(=O)NCCNC(=O)CCC(=O)N(C)O	> 100 µM (inactive)	> 100 µM (inactive)	> 100 µM (inactive)	> 100 µM (inactive)	> 100 µM (inactive)	> 100 µM (inactive)	> 100 µM (inactive)	> 100 µM (inactive)	> 100 µM (inactive)	> 100 µM (inactive)	> 100 µM (inactive)	> 100 µM (inactive)	> 100 µM (inactive)	> 100 µM (inactive)	> 100 µM (inactive)	> 100 µM (inactive)
S=C(Cc1ccc2c(c1)Sc1ccccc1O2)N1CCOCC1	38.7 µM (inactive)	> 100 µM (inactive)	30.3 µM (inactive)	86.1 µM (inactive)	21.1 µM (inactive)	33.7 µM (inactive)	29.4 µM (inactive)	42.7 µM (inactive)	52.1 µM (inactive)	23.8 µM (inactive)	24.8 µM (inactive)	49.5 µM (inactive)	69.8 µM (inactive)	66.7 µM (inactive)	49.9 µM (inactive)	26.1 µM (inactive)
CNc1ccc2c(c1)[C@@]1(C)c3ccccc3[C@@H](C2)N1C	30.6 µM (inactive)	39.5 µM (inactive)	32.7 µM (inactive)	20.1 µM (inactive)	29.7 µM (inactive)	48.9 µM (inactive)	19.1 µM (inactive)	24.4 µM (inactive)	17.5 µM (inactive)	28 µM (inactive)	27.4 µM (inactive)	20.1 µM (inactive)	20.3 µM (inactive)	21.6 µM (inactive)	43.8 µM (inactive)	28.1 µM (inactive)
O=c1[nH]nc(-c2ccccc2)n1/N=C/c1ccccc1Cl	52.6 µM (inactive)	41.3 µM (inactive)	45.9 µM (inactive)	36.2 µM (inactive)	16.2 µM (inactive)	21.8 µM (inactive)	19.1 µM (inactive)	33.1 µM (inactive)	22.4 µM (inactive)	20.3 µM (inactive)	19.8 µM (inactive)	23.8 µM (inactive)	25.4 µM (inactive)	18 µM (inactive)	48.8 µM (inactive)	42.8 µM (inactive)
O=C1/C(=C/c2ccc(Oc3ccccc3)cc2)N=C(c2ccccc2)N1c1ccc(S(=O)(=O)Nc2nccs2)cc1	37.2 µM (inactive)	47 µM (inactive)	23.2 µM (inactive)	1.56 µM (inactive)	39.4 µM (inactive)	–	2.62 µM (inactive)	3.22 µM (inactive)	12.6 µM (inactive)	19.1 µM (inactive)	13.1 µM (inactive)	17.3 µM (inactive)	17 µM (inactive)	2.63 µM (inactive)	27.8 µM (inactive)	21.8 µM (inactive)
CCN(CC)CCCNc1c2c(Cl)cc(Cl)cc2nc2nc(O)nc(C)c12	> 100 µM (inactive)	> 100 µM (inactive)	> 100 µM (inactive)	21.5 µM (inactive)	47.5 µM (inactive)	35.6 µM (inactive)	21.3 µM (inactive)	18.6 µM (inactive)	20.7 µM (inactive)	41.6 µM (inactive)	> 100 µM (inactive)	77.6 µM (inactive)	> 100 µM (inactive)	27.5 µM (inactive)	25.6 µM (inactive)	> 100 µM (inactive)
COC(=O)Cc1c([C@H]2[C@H](CC(=O)OC)c3ccccc3N2C(=O)C(F)(F)F)[nH]c2ccccc12	29.8 µM (inactive)	63 µM (inactive)	26.8 µM (inactive)	32.1 µM (inactive)	22.8 µM (inactive)	2.83 µM (inactive)	21.9 µM (inactive)	32.3 µM (inactive)	9.02 µM (inactive)	29.9 µM (inactive)	21.5 µM (inactive)	15.9 µM (inactive)	20 µM (inactive)	25 µM (inactive)	28.5 µM (inactive)	33.6 µM (inactive)
O=C(N/N=C1\C(=O)Nc2ccc(Br)cc21)/C(O)=C/C(=O)c1ccc(Cl)cc1	> 100 µM (inactive)	> 100 µM (inactive)	45.8 µM (inactive)	50.5 µM (inactive)	30.2 µM (inactive)	75.9 µM (inactive)	39.9 µM (inactive)	39.3 µM (inactive)	0.0705 µM (active)	> 100 µM (inactive)	> 100 µM (inactive)	22.4 µM (inactive)	31.3 µM (inactive)	18.7 µM (inactive)	64.1 µM (inactive)	> 100 µM (inactive)
Cc1nc2ccc(S(=O)(=O)Nc3nccs3)cc2c(=O)n1NS(=O)(=O)c1nccs1	32 µM (inactive)	> 100 µM (inactive)	> 100 µM (inactive)	> 100 µM (inactive)	> 100 µM (inactive)	> 100 µM (inactive)	40.3 µM (inactive)	> 100 µM (inactive)	28.5 µM (inactive)	> 100 µM (inactive)	> 100 µM (inactive)	> 100 µM (inactive)	> 100 µM (inactive)	> 100 µM (inactive)	> 100 µM (inactive)	13.7 µM (inactive)
CC(C)Oc1cccc(N2C(n3ccnc3)=Nc3ccncc3S2(=O)=O)c1	10 µM (inactive)	12.2 µM (inactive)	16.2 µM (inactive)	16.9 µM (inactive)	19 µM (inactive)	14.6 µM (inactive)	11.9 µM (inactive)	12.8 µM (inactive)	4.3 µM (inactive)	13.5 µM (inactive)	21 µM (inactive)	9.35 µM (inactive)	14.7 µM (inactive)	13.1 µM (inactive)	17.5 µM (inactive)	21.6 µM (inactive)
CCOC(=O)C(NC(=O)N(C1=NCC(C)S1)C1CCCCC1)(OC)C(F)(F)F (centres undefined)	31.2 µM (inactive)	36.2 µM (inactive)	34.8 µM (inactive)	43.9 µM (inactive)	42.5 µM (inactive)	–	32.2 µM (inactive)	30.9 µM (inactive)	37.8 µM (inactive)	45.8 µM (inactive)	65.5 µM (inactive)	24.3 µM (inactive)	17.9 µM (inactive)	34 µM (inactive)	52.4 µM (inactive)	52 µM (inactive)
COc1ccc(N(C)C(=O)N(C)c2ccc([N+](=O)[O-])cc2)cc1	> 100 µM (inactive)	90.6 µM (inactive)	65.2 µM (inactive)	33 µM (inactive)	6.4 µM (inactive)	43.2 µM (inactive)	4.21 µM (inactive)	9.25 µM (inactive)	> 100 µM (inactive)	36.2 µM (inactive)	23.6 µM (inactive)	26.7 µM (inactive)	14.3 µM (inactive)	14.5 µM (inactive)	17.7 µM (inactive)	41.4 µM (inactive)
CC(C)(CN1CCCCC1)C(=O)/C=C/c1c(Cl)cccc1Cl	1.49 µM (inactive)	0.769 µM (active)	0.834 µM (active)	1.83 µM (inactive)	2.17 µM (inactive)	0.192 µM (active)	0.7 µM (active)	0.792 µM (active)	0.918 µM (active)	0.489 µM (active)	1.86 µM (inactive)	0.955 µM (active)	0.701 µM (active)	1.49 µM (inactive)	2.49 µM (inactive)	0.971 µM (active)
CC1(c2nc3ccccc3[nH]2)CCC(C#N)C(C)(C)O1 (centres undefined)	> 100 µM (inactive)	> 100 µM (inactive)	> 100 µM (inactive)	> 100 µM (inactive)	> 100 µM (inactive)	> 100 µM (inactive)	> 100 µM (inactive)	> 100 µM (inactive)	> 100 µM (inactive)	> 100 µM (inactive)	> 100 µM (inactive)	> 100 µM (inactive)	> 100 µM (inactive)	> 100 µM (inactive)	> 100 µM (inactive)	36 µM (inactive)
CS(=O)(=O)c1n[nH]c2nc(O)nc(O)c12	> 10 µM (inactive)	> 10 µM (inactive)	> 10 µM (inactive)	> 10 µM (inactive)	> 10 µM (inactive)	> 10 µM (inactive)	> 10 µM (inactive)	> 10 µM (inactive)	> 10 µM (inactive)	> 10 µM (inactive)	> 10 µM (inactive)	> 10 µM (inactive)	> 10 µM (inactive)	> 10 µM (inactive)	> 10 µM (inactive)	–
CCCCCCc1cc2cc(C(=O)Nc3nc(C45CC6CC(CC(C6)C4)C5)cs3)c(=O)oc2cc1O	4.43 µM (inactive)	22.1 µM (inactive)	17.9 µM (inactive)	8.15 µM (inactive)	11.8 µM (inactive)	10.4 µM (inactive)	7.13 µM (inactive)	11.4 µM (inactive)	15.1 µM (inactive)	19.7 µM (inactive)	17.3 µM (inactive)	13.1 µM (inactive)	8.24 µM (inactive)	12.3 µM (inactive)	20.3 µM (inactive)	24.5 µM (inactive)
